We go through one substance from patent US20090022739A1, “MODULATING THE KV1.1 VOLTAGE-GATED POTASSIUM CHANNEL IN T-CELLS FOR REGULATING THE […] AND SECRETION OF TUMOR NECROSIS FACTOR ALPHA (tnf-ALPHA) AND TREATING HUMAN DISEASE OR INJURIES MEDIATED BY […] HIGH OR LOW LEVELS OF TNF-ALPHA” (priority 2005, published 2009).

Experiment [1] addresses T1, Kv1.1 (Homo sapiens, UniProt Q09470). The conditions noted are these: Gutman et al, 2003; cited from earlier work.
The next experiment deals with NF-κB. Kind of experiment: EMSA for nuclear NF-κB in normal human T-cells. Format: cell-based. The conditions noted are these: 100 nM DTX-K. The protocol:
EMSA for Nuclear NF-κB: Nuclear fractions from freshly-isolated normal human T-cells were collected using Nuclear Extract Kit (Active Motif, Carlsbad, Calif.), according to the manufacturer's instructions. NF-κB levels in nuclear fractions were measured using TransAM NF-κB Family Kit (Active Motif), according to the manufacturer's instructions.
In case of the TNF-α gene, the observed importance of NF-κB for the expression of the TNFα gene may depend on the cell type and the segment of the enhancer/promoter analyzed (Siebenlist et al, 1990). On these grounds, we investigated whether block of Kv1.1 channels in normal human T-cells (once again, in the complete absence of any other stimuli) can affect NF-κB. […]
Nuclear extracts were […] for several time periods, of which only 7 min is shown. The results, expressed as OD±SD, reflect the amount of NF-κB bound to nuclear NF-κB-binding sequences, as determined by commercially available EMSA. […]

For experiment [2], the target named is T1, Kv1.1. The conditions noted are these: cited from earlier work.
Another experiment concerns NF-κB p50. Nature of the experiment: Immunofluorescent histochemistry for NF-κB p50 nuclear translocation. The class given is cell-based, human. The settings on record: 100 nM DTX-K; 7 minutes; FIG. 3C. The protocol: Immunofluorescent Histochemistry for NF-κB: Freshly-isolated normal human T-cells that were pretreated or not with DTX-K (100 nM for 7, 15, 30 and 60 minutes), were pelleted (1200 g, 10 minutes, […]), suspended in PBS at 1×10^6 cells/ml, centrifuged (1200 g, 10 minutes), fixed on glass slide by cytospin (250 μl/slide, 1500 rpm, 5 minutes; Shandon Elliot, London, UK), permeablized (200 μl/slide of a solution containing 100 ml 95% methanol and 3 ml acetic acid glacial), and incubated in a blocking medium (200 μl/slide) containing 10% normal goat serum, 2% BSA, 1% glycine and 0.5% triton X-100. The cells were then stained with a rabbit anti-human NF-κB p50 polyclonal Ab (80 μl of 1:50 dilution for 30 minutes at room temperature; Santa Cruz Biotechnology, Santa Cruz, Calif.). […]
In case of the TNF-α gene, the observed importance of NF-κB for the expression of the TNFα gene may depend on the cell type and the segment of the enhancer/promoter analyzed (Siebenlist et al, 1990). […]
In the experiment the results of which are shown in FIG. 3C, normal human T-cells were either left untreated or treated with 100 nM DTX-K for 7, 15, 30 and 60 minutes (see DTX-K treatment time above each respective column). […] Representative photographs at ×100 magnification are shown for NF-κB p50 green fluorescence (upper panel), nuclei blue fluorescence (middle panel), and overlay of both (lower panel). […]

T1 sequence (Q09470 whole entry): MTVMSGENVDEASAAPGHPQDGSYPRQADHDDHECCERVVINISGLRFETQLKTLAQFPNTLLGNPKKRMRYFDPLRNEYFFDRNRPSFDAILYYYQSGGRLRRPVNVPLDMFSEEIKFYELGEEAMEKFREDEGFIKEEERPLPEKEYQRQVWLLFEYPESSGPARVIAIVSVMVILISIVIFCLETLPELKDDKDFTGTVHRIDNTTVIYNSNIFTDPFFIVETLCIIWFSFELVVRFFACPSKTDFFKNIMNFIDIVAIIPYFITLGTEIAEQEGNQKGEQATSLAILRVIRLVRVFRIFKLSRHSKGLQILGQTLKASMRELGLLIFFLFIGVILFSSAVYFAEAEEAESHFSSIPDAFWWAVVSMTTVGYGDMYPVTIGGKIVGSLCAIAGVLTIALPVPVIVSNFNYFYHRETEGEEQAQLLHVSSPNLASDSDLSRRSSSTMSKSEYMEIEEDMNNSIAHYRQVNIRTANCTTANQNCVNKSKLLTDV

On to “Dendrotoxin-K (AAKYCKLPLRIGPCKRKIPSFYYKWKAKQCLPFDYSGCGGNANRFKTIEECRRTCVG) [DTX-K]”, for which the Ki with Kv1.1 [1] was 0.016 nM. In addition, in the experiment with NF-κB (7 minutes, FIG. 3B), the “level of NF-κB present in the nuclear extracts” value was “significantly augmented”. The “elevation of nuclear NF-κB at later time points” value in the experiment on NF-κB (several later time points, data not shown) is listed as “no longer detected”. Moreover, the “active concentration, Kv1.1 channel block” value with Kv1.1 [2] is given as “picomolar concentrations”. In addition, in the experiment on NF-κB p50, the “NF-κB p50 staining of the cell nucleus” value is “clearly positive for NF-κB p50”.
